{"source": "ChEMBL document CHEMBL1201862", "about": "“PubChem BioAssay data set” (2004)", "key": {"[1]": {"target": "T1, High affinity choline transporter 1 (Homo sapiens, UniProt Q9GZV3)", "T1 sequence (Q9GZV3 whole entry)": "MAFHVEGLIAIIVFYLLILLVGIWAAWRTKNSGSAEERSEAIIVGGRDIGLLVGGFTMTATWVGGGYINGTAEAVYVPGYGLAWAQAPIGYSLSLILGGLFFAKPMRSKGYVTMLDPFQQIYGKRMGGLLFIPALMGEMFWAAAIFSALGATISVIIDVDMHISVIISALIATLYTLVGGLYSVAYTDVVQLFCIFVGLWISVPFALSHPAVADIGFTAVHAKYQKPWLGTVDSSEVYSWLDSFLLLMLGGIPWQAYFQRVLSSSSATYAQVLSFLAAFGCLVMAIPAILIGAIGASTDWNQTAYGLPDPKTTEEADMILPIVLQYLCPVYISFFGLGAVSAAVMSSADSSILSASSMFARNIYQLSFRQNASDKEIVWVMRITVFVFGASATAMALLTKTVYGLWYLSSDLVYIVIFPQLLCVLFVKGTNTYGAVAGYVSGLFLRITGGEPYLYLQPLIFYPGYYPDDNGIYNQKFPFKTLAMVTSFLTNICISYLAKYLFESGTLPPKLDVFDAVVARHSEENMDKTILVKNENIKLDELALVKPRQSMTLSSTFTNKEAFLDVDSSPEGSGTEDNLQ", "test": "human choline transporter blockers, potency – cell-based, 5-point CRC, membrane potential dye, dose response (AID 504840)", "type": "functional"}, "Protein skinhead-1": {"target": "T2, Protein skinhead-1 (Caenorhabditis elegans, UniProt P34707)", "T2 sequence (P34707 whole entry)": "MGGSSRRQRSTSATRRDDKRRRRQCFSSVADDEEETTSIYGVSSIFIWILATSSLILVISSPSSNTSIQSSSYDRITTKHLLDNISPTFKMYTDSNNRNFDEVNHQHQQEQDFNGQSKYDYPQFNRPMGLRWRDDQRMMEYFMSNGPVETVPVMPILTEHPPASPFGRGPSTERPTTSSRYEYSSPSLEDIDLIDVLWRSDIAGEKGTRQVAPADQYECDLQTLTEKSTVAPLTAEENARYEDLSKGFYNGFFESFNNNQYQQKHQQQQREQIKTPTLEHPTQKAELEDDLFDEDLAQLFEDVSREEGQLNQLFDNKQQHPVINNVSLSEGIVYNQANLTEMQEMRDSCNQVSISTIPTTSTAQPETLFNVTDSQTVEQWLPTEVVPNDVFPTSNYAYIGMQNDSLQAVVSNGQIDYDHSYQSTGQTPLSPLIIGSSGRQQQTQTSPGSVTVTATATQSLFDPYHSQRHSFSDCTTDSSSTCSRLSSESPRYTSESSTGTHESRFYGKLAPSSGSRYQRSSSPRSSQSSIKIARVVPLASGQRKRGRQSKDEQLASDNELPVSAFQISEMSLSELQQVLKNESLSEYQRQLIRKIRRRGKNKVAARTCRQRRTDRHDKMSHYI", "type": "functional"}, "[2]": {"target": "Luciferin 4-monooxygenase (Photinus pyralis, UniProt P08659)", "sequence (P08659 whole entry)": "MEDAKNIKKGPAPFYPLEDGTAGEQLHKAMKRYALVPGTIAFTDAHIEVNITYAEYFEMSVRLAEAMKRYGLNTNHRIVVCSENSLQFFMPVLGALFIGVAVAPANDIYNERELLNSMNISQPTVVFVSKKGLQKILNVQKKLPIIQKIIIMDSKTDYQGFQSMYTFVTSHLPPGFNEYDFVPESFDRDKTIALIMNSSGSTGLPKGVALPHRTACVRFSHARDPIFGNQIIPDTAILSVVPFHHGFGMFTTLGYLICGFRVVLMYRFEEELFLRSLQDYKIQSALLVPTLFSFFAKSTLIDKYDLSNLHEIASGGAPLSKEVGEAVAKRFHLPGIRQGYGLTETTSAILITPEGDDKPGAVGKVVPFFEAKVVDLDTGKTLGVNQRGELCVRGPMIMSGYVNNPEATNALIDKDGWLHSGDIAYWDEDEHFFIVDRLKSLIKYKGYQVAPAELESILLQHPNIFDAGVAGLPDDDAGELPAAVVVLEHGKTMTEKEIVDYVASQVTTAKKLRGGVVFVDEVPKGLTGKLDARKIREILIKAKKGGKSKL", "test": "inhibition of purified Photinus pyralis luciferase – biochemical, luminescence, dose response (AID 1891)"}, "[3]": {"test": "Luminescence Cell-Based Dose Confirmation HTS to Identify Inhibitors of Platelet Dense Granule Release. [Related pubchem assays: 1663 (Primary HTS), 1678 (Summary of Project)]", "type": "functional"}, "[4]": {"test": "luciferase reporter signal suppression in cells – H4 neuroglioma cells, luminescence, dose response (AID 1990)", "type": "functional, cell-based"}, "[5]": {"test": "Luminescence Cell-Based Dose Response HTS to Identify Inhibitors of 5'UTR Stem-Loop Driven Prion Protein mRNA Translation in H4 Neuroglioblastoma Cells. [Related pubchem assays: 1827 (Project Summary), 1813 (Primary HTS)]", "type": "functional"}, "[6]": {"target": "T3, Heat shock factor protein 1 (Mus musculus, UniProt P38532)", "T3 sequence (P38532 whole entry)": "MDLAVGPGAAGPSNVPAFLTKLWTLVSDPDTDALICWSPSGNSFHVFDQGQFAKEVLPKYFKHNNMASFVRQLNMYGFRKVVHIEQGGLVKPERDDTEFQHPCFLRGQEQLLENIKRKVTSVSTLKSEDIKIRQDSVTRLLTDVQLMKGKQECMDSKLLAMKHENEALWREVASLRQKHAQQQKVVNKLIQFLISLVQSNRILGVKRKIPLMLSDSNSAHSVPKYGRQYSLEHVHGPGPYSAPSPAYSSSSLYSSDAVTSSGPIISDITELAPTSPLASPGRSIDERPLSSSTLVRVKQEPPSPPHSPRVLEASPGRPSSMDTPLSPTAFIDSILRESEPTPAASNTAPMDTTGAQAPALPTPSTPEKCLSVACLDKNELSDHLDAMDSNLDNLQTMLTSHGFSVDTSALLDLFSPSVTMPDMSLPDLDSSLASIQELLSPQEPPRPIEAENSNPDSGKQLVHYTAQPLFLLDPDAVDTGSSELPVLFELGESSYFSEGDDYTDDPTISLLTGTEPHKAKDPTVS", "test": "decrease of HSF1-responsive luciferase luminescence – cell-based, NIH3T3, dose retest, confirmation (AID 2382);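 also: NIH3T3 fibroblasts with HSF1-driven luciferase reporter stressed by proteasome inhibitor MG132; luminescence from HSF1-driven luciferase expression after 8 hours of MG132 stress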", "type": "functional"}, "[7]": {"test": "alpha-synuclein stem-loop luciferase translation blockers – H4 neuroglioma cells, luminescence, confirmation (AID 1988)", "type": "functional, cell-based"}, "[8]": {"test": "Luminescence Cell-Based Dose Retest to Confirm Inhibitors of Cancer Stem Cells. [Related pubchem assays (depositor defined):AID2717, AID2721]", "type": "functional", "conditions": "Homo sapiens"}, "INS1": {"tested_on": "INS1", "test": "INS-1E survival protection against cytokine death – cell-based, luminescence, retest, dose response (AID 449756);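 also: cell death triggered by IL-1 beta plus TNF-alpha plus IFN-gamma mixture; protective hits raise ATP signal compared with cytokine alone wells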", "type": "functional", "conditions": "Rattus norvegicus"}, "[9]": {"target": "T4, Carboxy-terminal domain RNA polymerase II polypeptide A small phosphatase 1 (Homo sapiens, UniProt Q9GZU7)", "T4 sequence (Q9GZU7 whole entry)": "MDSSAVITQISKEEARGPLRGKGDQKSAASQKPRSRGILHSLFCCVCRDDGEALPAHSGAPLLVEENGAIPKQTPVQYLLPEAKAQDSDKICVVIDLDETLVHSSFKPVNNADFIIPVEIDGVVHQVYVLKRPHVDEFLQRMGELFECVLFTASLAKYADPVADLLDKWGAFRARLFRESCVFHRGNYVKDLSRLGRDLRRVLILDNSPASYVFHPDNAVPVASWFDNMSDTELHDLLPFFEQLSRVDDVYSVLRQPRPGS", "test": "CTDSP1 inhibitors, concentration-response, biochemical, absorbance readout, ultra-high-throughput screen actives (AID 540297)", "type": "functional"}, "[10]": {"test": "NIH-3T3 fibroblast cytotoxicity, dose response, cytotoxicity control, cell-based, fluorescence, Alamar Blue, secondary assay (AID 2327);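 also: NIH-3T3 mouse fibroblasts cultured with fluconazole at 8 µg/mL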", "type": "functional"}, "[11]": {"test": "fluconazole-exposed Candida albicans growth modulators – fluorescence, retest, confirmation (AID 2467)", "type": "functional, cell-based"}, "[12]": {"test": "P. falciparum Dd2 growth inhibitors, dose response, SYBR Green, cherry-picked samples (AID 1159567)", "type": "functional, cell-based"}}, "note": "Active and inactive are the calls of the source. Rule as the data show it, for most assays here: actives have a measured EC50 and inactives only a lower limit.", "data": [{"smiles": "CC1CCN(CC(=O)Nc2cccc(C(=O)Nc3cccc(C(F)(F)F)c3)c2)CC1", "values": [{"measurement": "IC50", "setting": "[1]", "value": "12.3 µM (active)"}, {"measurement": "IC50", "setting": "Protein skinhead-1", "value": "43.2 µM (active)"}]}, {"smiles": "CC1CCN(CC(O)COc2ccc(OCC(O)CN3CCC(C)CC3)cc2)CC1", "note": "(centres undefined)", "values": [{"measurement": "IC50", "setting": "[1]", "value": "12.6 µM (active)"}]}, {"smiles": "COc1cccc(NC(=O)c2cnn(-c3ccccc3)c2C)c1", "values": [{"measurement": "EC50", "setting": "[2]", "value": "8.62 µM (active)"}, {"measurement": "EC50", "setting": "[3]", "value": "20.2 µM (active)"}]}, {"smiles": "CCCc1cc2c(=O)c(-c3cscn3)c(C(=O)OCC)oc2cc1O", "values": [{"measurement": "IC50", "setting": "[1]", "value": "13.8 µM (active)"}]}, {"smiles": "Cc1cccc(N2CC(C)Cn3c2nc2c3c(=O)n(CC(=O)OCc3ccccc3)c(=O)n2C)c1", "note": "(centres undefined)", "values": [{"measurement": "EC50", "setting": "[2]", "value": "27.8 µM (active)"}, {"measurement": "EC50", "setting": "[3]", "value": "> 112 µM (not active)"}]}, {"smiles": "Cc1ccc(C)c(OCC(=O)Nc2ccc(S(=O)(=O)Nc3ccccn3)cc2)c1C", "values": [{"measurement": "IC50", "setting": "[1]", "value": "7.2 µM (active)"}]}, {"smiles": "O=C1c2ccccc2C(O)N1CCN1CCOCC1", "note": "(centres undefined)", "values": [{"measurement": "EC50", "setting": "[2]", "value": "> 112 µM (not active)"}, {"measurement": "EC50", "setting": "[3]", "value": "> 112 µM (not active)"}]}, {"smiles": "CCCn1nc(NS(=O)(=O)c2ccc(F)cc2)c2cc3ccccc3nc21", "values": [{"measurement": "EC50", "setting": "[2]", "value": "> 112 µM (not active)"}, {"measurement": "EC50", "setting": "[3]", "value": "> 112 µM (not active)"}]}, {"smiles": "Fc1ccc(-c2nnc(NC3=NCCCCC3)o2)cc1", "values": [{"measurement": "EC50", "setting": "[4]", "value": "2.66 µM (active)"}, {"measurement": "EC50", "setting": "[5]", "value": "0.751 µM (active)"}, {"measurement": "EC50", "setting": "[6]", "value": "16 µM (active)"}, {"measurement": "EC50", "setting": "[7]", "value": "1.4 µM (active)"}, {"measurement": "EC50", "setting": "[2]", "value": "13.9 µM (active)"}, {"measurement": "EC50", "setting": "[3]", "value": "2.88 µM (active)"}]}, {"smiles": "CCCCC1CCC(C(=O)N(CC(C)C)c2c(N)n(Cc3ccccc3)c(=O)[nH]c2=O)CC1", "note": "(centres undefined)", "values": [{"measurement": "AC50", "setting": "[8]", "value": "2.96 µM (active)"}, {"measurement": "AC50", "setting": "INS1", "value": "5.82 µM (active)"}]}, {"smiles": "O=C(NCCC1=CCCCC1)NC1CCCCC1", "values": [{"measurement": "EC50", "setting": "[2]", "value": "> 112 µM (not active)"}, {"measurement": "EC50", "setting": "[3]", "value": "> 112 µM (not active)"}, {"measurement": "IC50", "setting": "Protein skinhead-1", "value": "> 100 µM (inactive)"}]}, {"smiles": "Cc1ccc(C)c(N2CCN(S(=O)(=O)c3ccc4c(c3)OCCO4)CC2)c1", "values": [{"measurement": "EC50", "setting": "[2]", "value": "> 112 µM (not active)"}, {"measurement": "EC50", "setting": "[3]", "value": "> 112 µM (not active)"}]}, {"smiles": "Cc1cc(C)c(C)c(S(=O)(=O)N[C@@H](C)C(=O)OCc2cc(=O)n3cc(Br)ccc3n2)c1C", "values": [{"measurement": "IC50", "setting": "[9]", "value": "7.42 µM (active)"}]}, {"smiles": "CC(C)C(=O)Nc1ncc2c(n1)CC(c1cccs1)CC2=O", "note": "(centres undefined)", "values": [{"measurement": "EC50", "setting": "[2]", "value": "> 112 µM (not active)"}, {"measurement": "EC50", "setting": "[3]", "value": "> 112 µM (not active)"}]}, {"smiles": "CCOC(=O)c1cccc(Nc2ncnc3ccccc23)c1", "values": [{"measurement": "IC50", "setting": "[1]", "value": "14.5 µM (active)"}]}, {"smiles": "O=c1c2ccccc2nc(SCc2ccncc2)n1CC1CCCO1", "note": "(centres undefined)", "values": [{"measurement": "IC50", "setting": "[1]", "value": "12.9 µM (active)"}]}, {"smiles": "C/C(=N\\NC(=O)C(C)n1nc(C)c([N+](=O)[O-])c1C)c1ccccc1O", "note": "(centres undefined)", "values": [{"measurement": "AC50", "setting": "INS1", "value": "1.93 µM (active)"}]}, {"smiles": "Cc1nn(-c2ccc(F)cc2)c(Cl)c1/C=N/NC(=O)c1cccc(S(=O)(=O)N2CCCC2)c1", "values": [{"measurement": "IC50", "setting": "[9]", "value": "10.7 µM (active)"}]}, {"smiles": "COc1ccc(C/C(O)=C(\\C#N)c2nc3ccccc3s2)cc1", "values": [{"measurement": "EC50", "setting": "[10]", "value": "39.5 µM (active)"}, {"measurement": "EC50", "setting": "[11]", "value": "0.405 µM (active)"}, {"measurement": "IC50", "setting": "[1]", "value": "0.724 µM (active)"}]}, {"smiles": "CCn1/c(=N/C(=O)c2ccc(S(=O)(=O)N3CCOCC3)cc2)sc2cccc(OC)c21", "values": [{"measurement": "AC50", "setting": "INS1", "value": "5.66 µM (active)"}]}, {"smiles": "O=C(c1ccccn1)N1CC2(C1)[C@@H](c1ccccc1)[C@H](CO)N2Cc1ccc(Cl)cc1", "values": [{"measurement": "AC50", "setting": "[12]", "value": "4.6 µM (active)"}]}, {"smiles": "COc1ccc(NC(=O)N2CCC3(CC2)CN(C(=O)C2CCC2)[C@@H](CO)c2c3c3ccc(OC)cc3n2C)cc1", "values": [{"measurement": "AC50", "setting": "[12]", "value": "6.04 µM (active)"}]}]}
